# Laboratory results from patent publication US20160095343A1, “Synbiotic Product” (Tate & Lyle Ingredients Americas LLC, priority 2010, published 2016).
# How the values were obtained:
# Format in all cases: cell-based
# [1] = test system: B. coagulans strain GBI-30; assay: Comparison of maximum growth of B. coagulans on various carbohydrates (Example 2); conditions: carbohydrate at ~10 g/L, against no added carbohydrates
# Description: The maximum growth of probiotic B. coagulans strain GBI-30 (ATCC Designation Number PTA-6086; U.S. Pat. No. 6,849,256) (Ganeden Biotech, Inc.; Mayfield Heights, Ohio) was compared on the carbohydrates arabinoxylan, xylose, and dextrose at ˜10 g/L and against addition of no carbohydrates (FIG. 2).
# B. pumilus = assay: Growth of probiotic Bacillus on prebiotic carbohydrates (Example 1); conditions: carbohydrate at 10 g/L
# Protocol: (§1) Four commercial spore-forming probiotic Bacillus strains were grown on prebiotic carbohydrates at 10 g/L. (See FIG. 1). The four strains were B. pumilus, B. licheniformis, B. subtilis, and B. coagulans. The prebiotic carbohydrates were high molecular weight arabinoxylan (AX), xylose (X), soluble fiber dextrin (waxy) (SFDw), soluble corn fiber (85) (SCF), and polydextrose (PDX). As a measure of the significance of the data shown in FIG. 1, Table 1 indicates P values for the B. coagulans data.
# B. subtilis = assay: as above; conditions: carbohydrate at 10 g/L
# Protocol: as §1
# B. licheniformis = assay: as above; conditions: carbohydrate at 10 g/L
# Protocol: as §1
# B. coagulans = assay: as above; conditions: carbohydrate at 10 g/L
# Protocol: as §1
smiles,measurement,setting,value
O=C[C@H](O)[C@@H](O)[C@H](O)CO [xylose],maximum growth of B. coagulans strain GBI-30 on the carbohydrate,[1],strong growth
same,growth of B. pumilus on the prebiotic carbohydrate,B. pumilus,did not appear able to grow
same,growth of B. subtilis on the prebiotic carbohydrate,B. subtilis,grew
same,growth of B. licheniformis on the prebiotic carbohydrate,B. licheniformis,limited growth
same,growth of B. coagulans on the prebiotic carbohydrate,B. coagulans,grew
